Experimental findings from US8158828B2, “Nuclear receptor binding agents” (priority 2005, dated 2012) are described below.

Structures are written as SMILES. “Also recorded” adds a separate entry of the source.

For one data set, the target named is T1, AR (Rattus norvegicus, UniProt P15207).
T1 construct: expressed in transfected cells; host or cells: COS cells
T1 sequence (P15207 1-902): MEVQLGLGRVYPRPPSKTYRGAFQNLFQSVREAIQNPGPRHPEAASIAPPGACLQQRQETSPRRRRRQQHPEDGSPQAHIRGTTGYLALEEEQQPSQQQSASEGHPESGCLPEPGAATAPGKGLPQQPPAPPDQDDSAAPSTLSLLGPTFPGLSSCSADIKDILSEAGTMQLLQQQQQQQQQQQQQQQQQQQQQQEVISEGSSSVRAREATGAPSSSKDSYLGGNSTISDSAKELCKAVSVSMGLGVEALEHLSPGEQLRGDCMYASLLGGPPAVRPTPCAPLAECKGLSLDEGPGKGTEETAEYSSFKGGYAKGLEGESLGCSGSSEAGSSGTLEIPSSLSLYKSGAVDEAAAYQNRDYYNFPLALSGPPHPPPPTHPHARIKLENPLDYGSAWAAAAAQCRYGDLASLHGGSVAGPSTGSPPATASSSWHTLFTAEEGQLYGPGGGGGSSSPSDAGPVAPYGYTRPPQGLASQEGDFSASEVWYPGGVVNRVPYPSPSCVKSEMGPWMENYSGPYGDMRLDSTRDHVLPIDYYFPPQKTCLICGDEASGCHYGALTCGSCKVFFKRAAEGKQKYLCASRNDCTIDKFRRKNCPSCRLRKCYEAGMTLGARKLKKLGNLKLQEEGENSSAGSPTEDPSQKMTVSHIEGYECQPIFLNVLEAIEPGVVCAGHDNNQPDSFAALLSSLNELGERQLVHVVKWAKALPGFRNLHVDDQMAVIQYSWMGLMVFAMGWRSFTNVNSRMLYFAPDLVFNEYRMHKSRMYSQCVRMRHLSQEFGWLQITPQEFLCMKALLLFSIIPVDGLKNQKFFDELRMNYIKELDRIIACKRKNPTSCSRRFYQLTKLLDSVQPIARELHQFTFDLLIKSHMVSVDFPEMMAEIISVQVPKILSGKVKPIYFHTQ
The data set is described as follows: AR transactivation, ARE-LUC in COS cells. In kind it is cell-based. The method, then:
FIG. 3: Effect of the indicated compounds on AR transactivation. COS cells plated in DME without phenol red+10% csFBS at 90,000 cells per well of a 24 well plate were transfected with 0.25 μg ARE-LUC, 0.02 μg CMV-LUC (Renilla) and 12.5 ng of AR by lipofectamine. Twenty four hours after transfection, the cells were treated as indicated in the figure, harvested 48 hrs after transfection and were assayed for firefly and renilla luciferase.
Also 25 ng of ER-α (FIGS. 1, 5, and 9), 50 ng of ER-β (FIGS. 2, 6 and 10) or 12.5 ng of AR (FIG. 3) were introduced by lipofectamine. All the receptors were cloned from rat tissue into the PCR3.1 vector backbone. […] Cells were harvested 48 hrs after transfection, and assayed for firefly and Renilla luciferase activity.

The subject of data set [1] is pS2 (gene encoding the trefoil peptides) in MCF-7 cells. In words: pS2 gene expression in MCF-7 cells (realtime RT-PCR). In kind it is cell-based. On the procedure: MCF-7 cells were plated at 500,000 cells per well of a 6 well plate. RNA was isolated and the message levels of pS2 (gene encoding the trefoil peptides) measured and normalized to 18S ribosomal RNA by realtime polymerase chain reaction (rtPCR).
FIG. 11: Agonistic activity of the indicated compounds in MCF-7 cells. MCF-7 cells were plated at 500,000 cells per well of a 6 well plate. RNA was isolated and the message levels of pS2 gene measured and normalized to 18S ribosomal RNA by realtime rtPCR.
MCF-7 cells were plated at 500,000 cells per well of a 6 well plate. The cells were serum starved for 3 days and then were treated as above for 16 hrs. RNA was isolated and gene expression levels assessed by realtime RT-PCR, following normalization to 18S ribosomal RNA.

Data set [2] in a line: Metabolic stability in human liver microsomes. The conditions noted are these: 1 μM substrate, 0.5 mg/mL microsomes. On the procedure:
Each substrate or reference control was dissolved at a concentration of 10 mM in DMSO, from which a 5 μM spiking solution was prepared by dilution in water. Substrates (1 μM) were incubated in the presence of human liver microsomes (Xenotech LLC, Kansas City Mo.) at 0.5 mg/mL fortified with an NADPH regenerating system at 37° C. and pH 7.4. The NADPH regenerating system consisted of glucose-6-phosphate dehydrogenase (1 units/mL) in 0.05M K2HPO4. Duplicate incubations were performed in 96-well polypropylene cluster tubes in a final volume of 250 μL per reaction. At 0, 2, 4, 6, 10, 30, and 60 minutes a stop solution (300 μL acetonitrile) was added to aliquots of the reaction mixture. Precipitated protein was removed by centrifugation (3000 rpm for 15 minutes) and the supernatants were transferred to clean 96-well plates for analysis.
The samples were injected onto a Phenomenex Luna hexylphenyl 50×2 mm i.d. 5 uM, column fitted with a guard column. An isocratic mobile phase consisting of 50% acetonitrile and 0.1% formic acid in water was used at a flow rate of 0.3 mL/min. The protonated molecular ion (M+H)^+ of the analyte was monitored by MDS/Sciex API 4000QTrap triple quadrupole mass spectrometer using electrospray positive mode ionization with a temperature of 500° C. and a spray voltage of 4000V. Total analysis time was 1.5 min per sample.
Metabolic stability was defined as the amount of substrate metabolized by the incubation with hepatic microsomes and expressed as a percentage of the initial amount of substrate (% remaining) based on peak area. Initial substrate concentration for each analyte was 1 μM. The initial peak area of each substrate was determined at time zero and metabolic stability was assessed based on the change in analyte peak area from time 0 min to a single fixed timepoint for each sample (2-60 min, representative timepoints are shown in Table 2 below).
(In general: Liver microsomes are a subcellular fraction often used to study metabolism.)

A further data set has as its system uterus. In words: In vivo estrogenic activity, uterine weight. Also on record: species or system rat. The conditions noted are these: female rats; for estrogenic activity in terms of uterine weight: compound alone. The method, then:
Rats that were administered the vehicle alone served as controls.

On to `O=C(c1ccccc1)N(c1ccc(O)cc1)c1ccc(OCCN2CCCCC2)cc1` [Compound 4a, N-(4-hydroxyphenyl)-N-[4-(2-piperidin-1-ylethoxy)-phenyl]-benzamide], for which the “AR LUC expression, compound alone” value at AR is given as “no effect on LUC expression”. Moreover, the “inhibition of DHT-induced AR activation” value on AR (with DHT) is reported as “nor did it inhibit DHT-induced AR activation”. Besides, the pS2 expression result in data set [1] (16 hrs) is on record as “only minimally did so; also recorded: partial agonist of ER action in MCF-7 cells”. In data set [1] (with estrogen), the “inhibition of estrogen-induced upregulation of pS2 gene expression” value was “inhibited estrogen-induced upregulation of pS2 gene expression”. For the same molecule, in data set [2], the “% Remaining 0 min” value was 100%, the “% Remaining 10 min” value is reported as 105%, the “% Remaining 30 min” value was 95% and the “% Remaining 60 min” value came out at 74%. Moreover, the “estrogenic activity in terms of uterine weight” value in the data set with uterus was “exhibited estrogenic activity, in terms of increased uterine weight; also recorded: exhibited estrogenic activity, in vivo”. The “uterine weight increase, with ICI-182,780” value in the data set on uterus (with ICI-182,780) was “ICI-182,780 reversed 4a and 4g effects on uterine weight increase”. Moreover, the “uterine weight, coadministered with estrogen” value in the data set on uterus (with estrogen) is “an increase in uterine weight was observed”.

As to `Cl.O=C(c1ccc(F)cc1)N(c1ccc(O)cc1)c1ccc(OCCN2CCCCC2)cc1` [Compound 4h, N-(4-hydroxyphenyl)-N-[4-(2-piperidin-1-ylethoxy)-phenyl]-4-fluroro-benzamide hydrochloride], in data set [2], the “% Remaining 0 min” value is recorded as 100%, the “% Remaining 10 min” value was determined as 99%, the “% Remaining 30 min” value came to 86% and the “% Remaining 60 min” value is 70%. The “estrogenic activity in terms of uterine weight” value with uterus is “exhibited no estrogenic, or anti-estrogenic activity in uterus”.
